The source of these data is patent US4602040A, “Meclofenamic acid topical pharmaceutical composition” (Warner-Lambert Company, priority 1985, dated 1986).

Data set [1] is described as follows: solubility of the drug in water and organic solvents. Format: physicochemical.
Data set [2] in a line: solubility in water-miscible solvents. The format is physicochemical.
Data set [3] can be described thus: octanol/water partition coefficient. The format is physicochemical.
The subject of data set [4] is carrageenan edema. In words: carrageenan-induced paw edema, topical meclofenamic acid, C57BL/6 mice. The format is in vivo. How it is done:
(§1) Method: Carrageenan edema was induced in mice by previously published methods (Levy, L., Life Sciences 8:601, 1969). Briefly, mice were injected in the left rear footpad with either 25 ul or 50 ul of a 1% solution of carrageenan in saline and in the contralateral footpad with a similar volume of saline. At various time intervals thereafter, the swelling was assessed in each of the rear footpads by mercury plethysmography.
(§2) In this example, female C57BL/6 or CD-1 mice were used in all studies, and swelling was assessed five hours after carrageenan injection by mercury plethysmography. Net edema was determined by subtracting the volume of the saline-injected foot from the volume of the carrageenan-injected foot. Meclofenamic acid was administered either topically or perorally one hour after carrageenan injection in a vehicle containing 50% PEG 400 monolaurate, 10 lantrol AWS, and 40% isopropyl alcohol. When applied topically, the appropriate hindpaw was dipped to the hairline in the meclofenamic acid solution or vehicle and rubbed gently for 15 seconds by a technician wearing rubber gloves. Approximately 50 ul of the meclofenamic acid or vehicle solution was used to treat each hindpaw.
(§3) Meclofenamic acid was administered orally by gavage needle in a volume of 50 ul of the monolaurate/lantrol AWS/isopropyl alcohol vehicle used above. Statistical differences in swelling between experimental groups were determined by student's t-test.
Background: In the carrageenan paw model, swelling and tenderness develop within hours.

Data set [5] relates to carrageenan edema. In words: carrageenan-induced paw edema, topical meclofenamic acid, CD-1 mice. Format: in vivo. How it is done: as §1
as §2, with “Approximately 50 ul of the meclofenamic acid or vehicle solution was used to treat each hindpaw.” left out
as §3

Data set [6] relates to carrageenan edema. In words: carrageenan-induced paw edema, topical versus oral / distant-site administration. Format: in vivo, C57BL/6 mice. How it is done: as §1, §2, §3
To determine whether the observed activity of meclofenamic acid was actually due to topical rather than oral (as a result of preening) absorption, meclofenamic acid compositions (containing 1, 3 or 5% active ingredient in the above vehicle) were administered orally or topically (to the carrageenan-injected paw) and the effects on swelling were determined.

As for `Cc1ccc(Cl)c(Nc2ccccc2C(=O)O)c1Cl` [meclofenamic acid], the “solubility in glycerin, isopropyl myristate and mineral oil” value in data set [1] (glycerin, isopropyl myristate, mineral oil) is listed as “insoluble”. In addition, the “solubility in propylene glycol, ethyl alcohol and linoleic acid” value in data set [1] (propylene glycol, ethyl alcohol, linoleic acid) was “less than 5%”. The water solubility entry in data set [1] (water) is “virtually water-insoluble”. Further, the “solubility in water-miscible solvents with the aid of heating” value in data set [2] (heating up to 90° C., same solvents, compared with room temperature) was “more”. In addition, in data set [2] (room temperature, PEG 400, PEG-8 monolaurate, PEG glucose ethers (Glucam-E 10, P-20), PEG-75 Lanolin Oil, PPG-5-Ceteth-10 Phosphate), the “solubility in water-miscible solvents” value is at most 5%. The octanol/water partition coefficient result in data set [3] was “highly favorable”. In the data set on carrageenan edema [4] (C57BL/6 compared with CD-1 mice, topical), the “sensitivity of C57BL/6 mice to the effects of meclofenamic acid” value is “slightly more sensitive”. Also, the “reduction in swelling (in words)” value in the data set with carrageenan edema [4] (C57BL/6 mice, topical to carrageenan-injected foot one hour after carrageenan, swelling at five hours) is given as “dose-dependent reduction in swelling”; in the data set on carrageenan edema [5] (topical to carrageenan-injected foot one hour after carrageenan, swelling at five hours) it was “dose-dependent reduction in swelling”. Besides, the “inhibition of swelling (maximum effect)” value with carrageenan edema [4] (C57BL/6 mice, topical, 3% concentration, five hours after carrageenan) is 49.7%; in the data set on carrageenan edema [5] (topical, 5% concentration, five hours after carrageenan), 36.4%. Besides, the “inhibition of swelling, carrageenan-injected foot versus distant site” value in the data set with carrageenan edema [6] (topical to carrageenan-injected foot vs distant site (saline-injected foot), 1, 3, and 5% concentrations, p<0.05) is on record as “significantly (p<0.05) more inhibitory”. Moreover, the “inhibition of swelling, topical versus oral” value in the data set with carrageenan edema [6] (topical to carrageenan-injected foot vs oral, 1, 3, and 5% concentrations, p<0.05) is on record as “significantly (p<0.05) more inhibitory”. The local anti-inflammatory activity result in the data set on carrageenan edema [6] (topically applied, data from Examples 5 and 6) is recorded as “significant local anti-inflammatory activity”.
